According to the NIST ThermoML archive (doi:10.1021/je800589e):

Experiment: xn = mol fraction of the nth substance listed
Settings: Ring tensiometer

CCN1CCCC1=O [1-ethyl-2-pyrrolidinone] + O
surface tension liquid-gas [mN/m]
Settings | 293.15 K | 298.15 K | 303.15 K | 313.15 K | 323.15 K
x1 = 0.0002 | 65.16 | 62.84 | 60.76 | 58.13 | 53.44
x1 = 0.0005 | 59.61 | 57.85 | 55.95 | 53.14 | 50.14
x1 = 0.001 | 56.3 | 54.77 | 53.23 | 51 | 49
x1 = 0.01 | 48.62 | 47.51 | 46.59 | 45.11 | 43.84
x1 = 0.02 | 44.12 | 43.28 | 42.53 | 41.4 | 40.2
x1 = 0.05 | 43.48 | 42.53 | 41.79 | 40.32 | 39.26
x1 = 0.1 | 42.11 | 41.22 | 40.42 | 39.3 | 38.32
x1 = 0.2 | 40.9 | 40.09 | 39.35 | 38.43 | 37.22
x1 = 0.3 | 40.28 | 39.44 | 38.52 | 37.59 | 36.48
x1 = 0.4 | 39.63 | 38.73 | 37.87 | 36.87 | 35.72
x1 = 0.5 | 39.25 | 38.23 | 37.31 | 36.2 | 35.26
x1 = 0.6 | 38.6 | 37.89 | 36.94 | 35.83 | 34.86
x1 = 0.7 | 38.04 | 37.01 | 36.39 | 35.35 | 34.72
x1 = 0.8 | 37.71 | 36.63 | 35.9 | 35.08 | 34.35
x1 = 0.9 | 37.09 | 36.17 | 35.63 | 34.72 | 34
x1 = 1 | 36.48 | 35.65 | 35 | 34.35 | 33.61

O=C1CCCN1 [2-pyrrolidinone] + O
surface tension liquid-gas [mN/m]
Settings | 293.15 K | 298.15 K | 303.15 K | 313.15 K | 323.15 K
x1 = 0.0002 | 60.4 | 58.9 | 57.3 | 55.4 | 53.2
x1 = 0.0006 | 55.69 | 54.6 | 53.93 | 52.2 | 51.05
x1 = 0.01 | 52.9 | 51.68 | 50.8 | 49.8 | 49.1
x1 = 0.015 | 52.4 | 51.19 | 50.23 | 49.3 | 48.7
x1 = 0.05 | 50.72 | 49.58 | 48.68 | 47.77 | 46.34
x1 = 0.07 | 50.26 | 49.28 | 48.45 | 47 | 45.89
x1 = 0.1 | 49.96 | 48.91 | 48 | 46.49 | 45.58
x1 = 0.2 | 48.91 | 48.08 | 47.09 | 45.89 | 45.13
x1 = 0.3 | 47.93 | 47.17 | 46.42 | 45.43 | 44.6
x1 = 0.4 | 47.54 | 46.87 | 46.19 | 45.28 | 44.53
x1 = 0.5 | 47.17 | 46.72 | 46.02 | 45.21 | 44.45
x1 = 0.6 | 47.1 | 46.64 | 45.81 | 44.91 | 44.15
x1 = 0.7 | 47.1 | 46.42 | 45.66 | 45 | 44.23
x1 = 0.8 | 46.94 | 46.42 | 45.66 | 44.68 | 43.85
x1 = 0.9 | 46.64 | 46.11 | 45.51 | 44.53 | 43.77
x1 = 1 | 46.31 | 45.81 | 45.22 | 44.12 | 43.19

CN1CCCC1=O [N-methylpyrrolidone] + O
surface tension liquid-gas [mN/m]
Settings | 293.15 K | 298.15 K | 303.15 K | 313.15 K | 323.15 K
x1 = 0.0002 | 63.96 | 61.5 | 59.25 | 57 | 55
x1 = 0.0004 | 58.14 | 56.58 | 55.68 | 53.77 | 52.41
x1 = 0.0006 | 55.21 | 54.22 | 53.41 | 52.05 | 50.87
x1 = 0.001 | 53.5 | 52.86 | 52.23 | 51.05 | 50.14
x1 = 0.005 | 52.4 | 51.68 | 50.87 | 49.69 | 48.78
x1 = 0.01 | 51.6 | 50.78 | 50 | 48.87 | 48.05
x1 = 0.03 | 50.2 | 49.41 | 48.53 | 47.17 | 45.56
x1 = 0.1 | 49 | 48.29 | 47.49 | 46.34 | 44.6
x1 = 0.2 | 48.05 | 47.49 | 46.61 | 45.5 | 43.7
x1 = 0.4 | 46.05 | 45.42 | 44.94 | 44 | 42.4
x1 = 0.5 | 45.26 | 44.62 | 44 | 43.12 | 41.81
x1 = 0.6 | 44.46 | 43.82 | 43.1 | 42.3 | 41.18
x1 = 0.7 | 43.66 | 43 | 42.38 | 41.5 | 40.46
x1 = 0.8 | 42.78 | 42.14 | 41.66 | 40.78 | 39.74
x1 = 0.9 | 41.98 | 41.34 | 40.94 | 40.14 | 39.27
x1 = 1 | 41.26 | 40.8 | 40.38 | 39.64 | 38.68

O [water] + CCN1CCCC1=O
x2 = 0
Settings | surface tension liquid-gas [mN/m]
293.15 K | 72.65
298.15 K | 72.05
303.15 K | 71.21
313.15 K | 69.52
323.15 K | 67.92

O [water] + CN1CCCC1=O
x2 = 0
Settings | surface tension liquid-gas [mN/m]
293.15 K | 72.65
298.15 K | 72.05
303.15 K | 71.21
313.15 K | 69.52
323.15 K | 67.92

O [water] + O=C1CCCN1
x2 = 0
Settings | surface tension liquid-gas [mN/m]
293.15 K | 72.65
298.15 K | 72.05
303.15 K | 71.21
313.15 K | 69.52
323.15 K | 67.92
